The text below walks through data of patent US12116358B2, “Substituted indoles and methods of use thereof” (EPIZYME, INC., priority 2018, dated 2024).

pIC50: −log10 of the molar value. Where two headings read alike, the source gives them in different places.

Assay [1] has as its target T1, SETD2(1434-1711) (Homo sapiens, UniProt Q9BYW2).
T1 construct: SETD2 (1434-1711) Assay; catalogue N/A
T1 sequence (Q9BYW2 1434-1711): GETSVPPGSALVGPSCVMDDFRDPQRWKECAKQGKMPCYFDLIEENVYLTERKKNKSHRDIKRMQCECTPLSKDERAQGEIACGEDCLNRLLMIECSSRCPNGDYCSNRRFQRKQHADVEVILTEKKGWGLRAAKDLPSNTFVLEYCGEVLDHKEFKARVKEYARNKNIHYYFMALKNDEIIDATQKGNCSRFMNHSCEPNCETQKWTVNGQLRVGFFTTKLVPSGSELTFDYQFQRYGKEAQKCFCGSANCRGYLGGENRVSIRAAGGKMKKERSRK
In words: SETD2 (1434-1711) assay. The class given is biochemical. The note with it: read-out: SETD2 (1434-1711).

For assay [2], the system named is H3K36me3 in A549 cells. Put plainly: In-Cell Western (ICW) assay of SETD2 inhibitors (A549 assay). It is filed as cell-based, human. The note with it: A549 cells, read-out: SETD2 A549. In a few lines:
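H3K36me3 In-Cell Western: cells exposed to compound for 3 days at 4,000 cells/well, 37° C. DRAQ5 (1:1000) marked cell number, with 700/800-channel Licor read-out.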

As to `Cc1cccc2cc(C(=O)Nc3ccc4cnccc4c3)[nH]c12` [compound 437], the pIC50 is 6.22 in assay [1] and 5.32 in assay [2].
With `Cc1ccc(F)c2cc(C(=O)Nc3cccc(C4CCCCN4)c3)[nH]c12` (stereo not shown) [compound 438], the pIC50 was 6.52 in assay [1] and 5.31 in assay [2] (Homo sapiens).
With `Cc1cccc2cc(C(=O)Nc3cccc(N4CCC(NC(=O)CN)CC4)c3)[nH]c12` [compound 439], the pIC50 in assay [1] is 6.70; in assay [2] it was 5.30.
For the compound `Cc1cc(N2CCN(CCCc3cccnc3)CC2)cnc1C(NC(=O)c1cc2cccc(C)c2[nH]1)C1CC1` (stereo not shown) [compound 440], the pIC50 is 6.10 in assay [1] and 5.30 in assay [2] (Homo sapiens).
`Cc1cc(CC(=O)N2CCN(C)CC2)cnc1C(NC(=O)c1cc2cccc(C)c2[nH]1)C1CC1` (stereo not shown) [compound 441]: the pIC50 in assay [1] was 5.36; in assay [2] it was 5.29.
In the case of `Cc1ccc(CN2CCOCC2)cc1NC(=O)c1cc2cccc(C)c2[nH]1` [compound 442], the pIC50 in assay [1] is 5.68; in assay [2] (Homo sapiens), 5.29.
The like results for `Cc1cccc2cc(C(=O)Nc3cccc(N4CCN(S(=O)(=O)CCN)CC4)n3)[nH]c12` [compound 443] were, in that order, 6.22 and 5.29.
`Cc1ccc(F)c2cc(C(=O)Nc3cccc(-c4cc(N)n[nH]4)c3)[nH]c12` [compound 444]: the values for the pIC50 in assay [1] and in assay [2] were 6.40 and 5.28, respectively.
In the case of `Cc1cc(-c2ncc[nH]2)cnc1C(NC(=O)c1cc2cccc(C)c2[nH]1)C1CC1` (stereo not shown) [compound 445], the figures for the pIC50 in assay [1] and in assay [2] (Homo sapiens) were 5.85 and 5.28, respectively.
Take `Cc1cccnc1C(CCC(=O)N(C)C)NC(=O)c1cc2cccc(C)c2[nH]1` (stereo not shown) [compound 446]: the pIC50 in assay [1] was 5.20; in assay [2] (Homo sapiens), 5.27.
In the case of `Cc1cc(CCNC(=O)Cc2cccnc2)cnc1C(NC(=O)c1cc2cccc(C)c2[nH]1)C1CC1` (stereo not shown) [compound 447], the pIC50 was 5.55 in assay [1] and 5.26 in assay [2].
For `Cc1cccc2cc(C(=O)Nc3ccc4ccc(C(=O)N5CCN(C)CC5)cc4c3)[nH]c12` [compound 448], in that order: 6.05 and 5.26.
Consider `Cc1cccc2cc(C(=O)Nc3cccc(N4CCN(S(=O)(=O)CCN)CC4)c3)[nH]c12` [compound 449], for which the pIC50 in assay [1] is 6.70; in assay [2] (Homo sapiens), 5.26.
For `Cc1ccnnc1C(NC(=O)c1cc2c(F)ccc(C)c2[nH]1)C1CC1` (stereo not shown) [compound 450], in that order: 5.64 and 5.25.
The like results for `Cc1cc(C(=O)N[C@H]2CC[C@H]2N)cnc1C(NC(=O)c1cc2cccc(C)c2[nH]1)C1CC1` (stereo partly shown) [compound 451] were, in that order, 6.40 and 5.25.
For `Cc1cccc2cc(C(=O)Nc3cccc(N4CCC(NCCN)CC4)c3)[nH]c12` [compound 452], in that order: 7.22 and 5.24.
For `Cc1cccc2cc(C(=O)Nc3ccc4ccc(CN5CCN(C)CC5)cc4c3)[nH]c12` [compound 453], the pIC50 in assay [1] was 6.15; in assay [2] (Homo sapiens), 5.24.
For `Cc1ccc(F)c2cc(C(=O)Nc3cccc(S(N)(=O)=O)c3)[nH]c12` [compound 454], in that order: 5.55 and 5.23.
The like results for `Cc1cc(C(=O)N[C@@H]2CC[C@H]2N)cnc1C(NC(=O)c1cc2cccc(C)c2[nH]1)C1CC1` (stereo partly shown) [compound 455] were, in that order, 6.40 and 5.23.
For `Cc1ccc(NC(=O)c2cc3cccc(C)c3[nH]2)cc1CN1CCOCC1` [compound 456], in that order: 5.85 and 5.21.
Regarding `Cc1ccc(F)c2cc(C(=O)NC3C(=O)NCc4ccccc43)[nH]c12` (stereo not shown) [compound 458], the pIC50 in assay [1] was 5.66; in assay [2] (Homo sapiens), 5.21.
As to `Cc1cccc2cc(C(=O)Nc3ccc4nccn4c3)[nH]c12` [compound 459], the figures for the pIC50 in assay [1] and in assay [2] were 5.82 and 5.21, respectively.
`Cc1cccnc1C(CCC(=O)N1CCn2cncc2C1)NC(=O)c1cc2cccc(C)c2[nH]1` (stereo not shown) [compound 460]: the pIC50 in assay [1] was 5.35; in assay [2] (Homo sapiens), 5.21.
